From patent US9011853B2, “B7-H4 fusion proteins and methods of use thereof” (Amplimmune, Inc., priority 2009, dated 2015)

Tested on: CD4^+CD62L^+ naïve T cells
Test: In vitro Th1 polarization: proliferation and cytokine production
Assay type: cell-based, mouse
Experimental: Mouse splenocytes were first removed isolated from DO11.10 mice, which express an MHC class II restricted T cell receptor specific for OVA323-339. Mouse CD4^+ T cells were purified using a Miltenyi CD4^+ T cell negative isolation kit (Cat#130-090-860). […] CD4^+CD62L^+ naïve T cells with or without CD25^+ T cells were cultured in serum free HL-1 media in the presence of rIL-2 (1 ng/mL), rIL-12 (4 ng/mL) and anti-IL-4 (1 μg/mL). Activity of murine B7-H4-Ig was tested in a number of formats (soluble and insoluble presentation of B7-H4-Ig). Murine B7-H4-Ig was also assessed for activity on T cells activated non-specifically or with antigen-specific stimulation. To provide murine B7-H4-Ig in an immobilized format, 96-well flat bottom plates were first coated with murine B7-H4-Ig, 100 μl per well at 1 μg/mL, and incubated at 37° C. for 2 hours. […] For non-specific antigen activation, Mouse CD3/CD28 T Cell Expander beads (Dynabeads®; Invitrogen, Cat#11452D) were added into each well, at a 1:1 cell to bead ratio. For OVA specific activation, splenocytes were first isolated from Balb/C mice as antigen presenting cells (APC) followed by irradiation at 3000 rads for 45 minutes and then added into each well, at a 1:1, APC to responder cell, ratio. OVA323-339 peptide was added into the culture at 20 μg/mL. [^3H]-Thymidine (1 μCi/well) was added into each well 24 hr post co-incubation. Proliferation was determined by uptake of [^3H]-thymidine detected at 48 hr post [^3H]-thymidine addition using a Topcount Microplate Scintillation Counter (Packard Instruments, Meridan, Conn.). Results are expressed as the mean of triplicate cultures±SEM. Supernatants were collected from plates without [^3H]-Thymidine at 72 hr for cytokine analysis. Cytokine measurements were performed using the Mouse Cytokine 10-Plex system (Millipore) and Luminex Liquidchip analyzer (Qiagen, Valencia, Calif.) or ELISA. The human and mouse B7-H4 proteins are 95% homologous. Human B7-H4-Ig was tested for cross-reactivity with murine T cells. Naïve CD4^+ T cells were isolated as described above. Upon purification, murine naïve CD4^+ T cells were polarized in the presence of IL-2, IL-12 and anti-IL4 for Th1 cell-promoting conditions, or TGF-β, IL-6, IL-23, anti-IL4, anti-IFNγ and anti-IL-2 for Th17 cell-promoting conditions, as described in Example 5 for murine B7-H4-Ig in vitro bioactivity. Human B7-H4-Ig was directly added into the culture at 0, 0.1, 1 or 10 μg/mL. Human Control IgG1 (Synagis®) was added into the culture to bring the final protein concentration to 10 μg/mL. […] After depletion of CD4^+CD25^+ T cells, CD25^+/P3^+ cells were decreased from approximately 5% to 1%.

Substance | decrease in IFN-γ production (Th1 conditions, APC/OVA, CD25+ T cells depleted (open triangles), various doses (FIG. 29A)) | inhibition of IFN-γ production (Th1 conditions, APC/OVA, in the presence of CD4+CD25+ Treg cells (solid triangle) (FIG. 29A)) | IL-10 production (Th1 conditions, APC/OVA, solid triangles (FIG. 29B)) | IFN-γ production in Th1 cells (0, 0.1, 1 or 10 μg/mL in solution, anti-CD3/CD28 beads (FIG. 27)) | murine Th1 proliferation (0, 0.1, 1 or 10 μg/mL in solution, anti-CD3/CD28 beads, dose dependent (FIG. 26))
B7-H4-Ig: B7-H4 extracellular domain fused to Ig Fc; bare label is the human protein in Example 3, murine protein in Examples 1, 2, 5, 7-11 | dose dependent | more profound | increased IL-10 production in a dose dependent manner |  | 
Human B7-H4-Ig: human B7-H4 extracellular domain fused to hinge, CH2 and CH3 regions of human immunoglobulin Cγ1 chain; representative SEQ ID NOs:114-137 |  |  |  | reduced IFN-γ production | blocked murine Th1/Th17 proliferation
